“Also recorded” adds a separate entry of the source.
Experiments:
[1] = tested on: human airway epithelium on-chip; conditions: cited from earlier work
[2] = tested on: Alveolus-Chip epithelium/endothelium barrier; experiment: Barrier function assay (fluorescent dextran / Lucifer Yellow leakage) in Open-Top Alveolus-Chip; format: cell-based, human; conditions: for preventive effect on barrier leakage: co-administered with H2O2 (10 mM), 50 nM Bardoxolone, 0.01-1.0 μM GSK, 2 μM JQ1; for reversibility of barrier breakdown after removal of stressor: additional 2 days in fresh medium
Description: We studied interaction between different chip compartments by perturbating the system with biological and chemical stressors such as LPS, and H2O2 which are known to induce a reversible disruption of the cellular monolayer after acute administration both in vivo and in vitro. […] The presence of a strong barrier is indirectly confirmed by the presence of continuous pattern of E-cad and VE-cad in the monolayer of Alveolar epithelial and endothelial cell, respectively.
(§1) Given the limited availability of in vitro models that can closely mimic human alveolar epithelium function and/or its disease states, we explored whether a microfluidic Alveolus-Chip lined with the primary alveolar epithelial cells on an artificial lung stroma with embedded primary lung fibroblasts and pulmonary microvascular endothelial cells would model a lung injury state. To test this, we exposed the Alveolus-Chips to an acute damage generated by exposure to H2O2 under continuous infusion through the epithelium top channel, similarly to as it is […] administered in mice.
Air-Liquid interface was replaced by phenol red free MEM (GIBCO: 51200-038) and medium in the bottom fluidical spiraled channel substituted by one containing 1 mg/ml Lucifer Yellow CH, Lithium Salt (ThermoFisher: L453) or 0.1 mg/ml Dextran, Fluorescein, 3000 MW, Anionic, Lysine Fixable (ThermoFisher: D3306). Leakage of the fluorescent probe from the lumen of the spiraled channel to the epithelial compartment was collected from the outlet reservoirs after indicated hours of perfusion. The fluorescence intensity was measured with a 96-well fluorimeter at excitation/emission indicated by the manufacturer.

IL-6, IL-8 and MCP-1 = experiment: Cytokine secretion in chip medium effluent (ELISA); format: cell-based, human; conditions: 24 hours of exposure
Description: We studied interaction between different chip compartments by perturbating the system with biological and chemical stressors such as LPS, and H2O2 which are known to induce a reversible disruption of the cellular monolayer after acute administration both in vivo and in vitro. […] To assess changes in the barrier function following the exposure to these insults, we added a fluorescent dye (e.g. […]—Dextran-FITC) to the endothelial compartment, which is under control condition confirmed that the endothelium and epithelium form a barrier to the dies. The presence of a strong barrier is also indirectly confirmed by the presence of continuous pattern of E-cad and VE-cad in the monolayer of Alveolar epithelial and endothelial cell, respectively. […] We also decoupled the effect of single biological component to the inflammatory response by selectively removing them from the system in an integrated matrix. […] In fact, the recorded value of IL-6 and IL-8 is not the algebraic sum of the concentration of the factors released by the single cellular components. […]
The amount of Surfactant B and C was collected from chip epithelial cell surface by PBS washing and measured by Human SFTPB/Surfactant Protein B ELISA Kit (Sandwich ELISA)—LS-F4439 and Human SFTPC/Surfactant Protein C ELISA Kit (Sandwich ELISA)—LS-F12438 (LifeSpanBioScience) following the manufacturer's protocol. The color reaction was measured at 450 nm with a photometer (specification). […] Similarly, the presence of IL-6, IL-8 and MPC in medium samples was detected by Human TLR-induced Cytokines II: Microbial-induced Multi-Analyte ELISArray Kit (MEH-008A) (Qiogen) following the manufacturer's protocol. The color reaction was measured at 450 nm with a photometer (specification). […]

[3] = tested on: cellular monolayer barrier; experiment: Barrier function in static transwell; format: cell-based; conditions: doses up to 100 ng/ml LPS, 10 mM H2O2
E-Cadherin = E-Cadherin / phalloidin imaging of Alveolus-Chip epithelium after H2O2; format: cell-based, human
Method: In one embodiment, a method is used for testing the effects of activating the Nrf2 system on pathological cell responses using an activating treatment, such as H2O2; LPS, etc. […] Control left panel, H2O2 (10 mM) (48 h) treatment, right panel. E-cadherin (green) actin (pink) and nuclei blue.
as §1
Open-Top Organ-Chips were fixed in 10% neutral buffered formalin. Endothelial cells were stained inside the chip by performinutesg the immunofluorescence steps described below directly inside the microfluidic channel. Stroma equivalents were stained as described by the step below inside the chip or alternatively extracted from the chip and processed for immunohistochemistry analysis. […]

[4] = tested on: alpha smooth muscle Actin (alpha-SMA); experiment: TGF-β treatment of open top Alveolar-Chip (EMT markers, immunostaining / qRT-PCR); format: cell-based, human; conditions: TGF-β up to 72 hours, versus vehicle
Description: E-cadherin is shown in pink.

In the case of `C[C@@H]1CCN(C(=O)CC#N)C[C@@H]1N(C)c1ncnc2[nH]ccc12` [Tofacitinib], the “effect on IL-13 induced phenotype” value [1] is listed as “suppressed”.
In the case of `Cc1sc2c(c1C)C(c1ccc(Cl)cc1)=N[C@@H](CC(=O)OC(C)(C)C)c1nnc(C)n1-2` [JQ1, thienotriazolodiazepine], the “preventive effect on barrier leakage” value [2] is reported as “significant preventive effect on the barrier leakage”.
With `CC1(C)CC[C@]2(C(=O)O)CC[C@]3(C)[C@H](C(=O)C=C4[C@@]5(C)C=C(C#N)C(=O)C(C)(C)[C@@H]5CC[C@]43C)[C@@H]2C1` [Bardoxolone, Bardoxolone (methyl)] the “preventive effect on barrier leakage” value [2] was “significant preventive effect on the barrier leakage”.
With `OO` [H2O2] the “effect of stressor on barrier function” value ([2]; LPS 10 ng/ml and/or H2O2 10 mM) was “causes barrier breakdown and disruption of intracellular junction; also recorded: significant loss of barrier function”, the “reversibility of barrier breakdown after removal of stressor” value [2] was “barrier breakdown in our chip was reversable” and the “release of IL-6, IL-8 and MCP-1 in medium effluent” value (IL-6, IL-8 and MCP-1) was “no apparent correlation”. The “loss of barrier function” value [3] was “dose dependent loss of barrier function”, the E-Cadherin distribution (E-Cadherin; H2O2 10 mM, 48 h) was “induces redistribution of E-Cadherin; also recorded: pronounced loss and re-distribution of E-Cadherin” and the “pneumocyte monolayer integrity (microscopy)” value (E-Cadherin; H2O2 continuous infusion through epithelium top channel) was “disruption of the pneumocyte monolayer with partial cell detachment”.
In the case of “TGF-β: transforming growth factor beta1, cytokine inducing epithelial to mesenchymal transition”, the ICAM-1 staining [4] is reported as “lack of ICAM-1”, the alpha-SMA induction [4] is reported as “induction of alpha smooth muscle Actin (alpha-SMA)” and the “reversibility of barrier breakdown after removal of stressor” value [2] is reported as “barrier breakdown in our chip was reversable”.
In the case of “IL-13: cytokine perfused to mimic a Th2 enriched microenvironment”, the “airway phenotype on IL-13 perfusion through the vascular channel” value [1] is listed as “significant airway remodeling with goblet cells hyperplasia”.

Source: patent US12098352B2, “Stem cell-based lung-on-chip models” (EMULATE, INC., priority 2018, dated 2024)
